Values after ≈ are worked out from the molar mass of the structure shown. Values joined by “and” are separate entries in the source; they are usually repeats but may differ in a detail not shown here. Equal values may be shown once. Read-outs that look alike come from different tables or passages of the source.
What was measured:
Mtb H37Rv [1] = conditions: minimum concentration to inhibit growth of Mtb H37RV by 99%; cited from earlier work
M. bovis BCG [2] = assay: microbe, parasite or virus in culture; format: cell-based, Mycobacterium bovis BCG; conditions: for MIC50 / MIC90: Mycobacterium tuberculosis variant bovis BCG, BCG
M. bovis BCG-pclgR-RFP = format: cell-based, Mycobacterium bovis BCG; conditions: 0.25x – 2x MIC90 (controls 10 μM), 24 h
mycobacterial growth = conditions: cited from earlier work
[3] = tested on: nonreplicating M. bovis BCG; format: cell-based, Mycobacterium bovis BCG; conditions: 4x MIC90BCG, 5 days, Wayne model
M. bovis BCG [4] = format: cell-based, Mycobacterium bovis BCG; conditions: 2x MIC90BCG, 6 h time point, cultures still viable
[5] = tested on: Mab bolletii CCUG 50184-T; assay: MIC against Mab bolletii CCUG 50184-T; format: cell-based, Mycobacterium abscessus subsp. bolletii; conditions: Mycobacteroides abscessus; for MIC50: CCUG50184, 72 h, 3 days
Mab abscessus ATCC 19977 = assay: MIC against Mab abscessus ATCC 19977; format: cell-based, Mycobacterium abscessus subsp. abscessus; conditions: Mycobacteroides abscessus; for MIC50: ATCC19977, 72 h, 3 days
Mtb H37Rv [6] = assay: MIC by broth microdilution against Mtb H37Rv; format: cell-based, Mycobacterium tuberculosis; conditions: Mycobacterium tuberculosis, H37RV
Mab complex = assay: MIC against Mab complex (summary over the 3 subspecies); format: cell-based, Mycobacterium abscessus; conditions: Mycobacteroides abscessus; range over subspecies
[7] = tested on: Mab massiliense CCUG 48898-T; assay: MIC against Mab massiliense CCUG 48898-T; format: cell-based, Mycobacterium abscessus subsp. massiliense; conditions: Mycobacteroides abscessus; for MIC50: CCUG48898, 72 h, 3 days
cat papillary muscle = conditions: cited from earlier work
Vero E6 = assay: Cytotoxicity in Vero E6 cells; format: cell-based, African green monkey; conditions: Chlorocebus sabaeus, Vero C1008, 48 h, growth suppressed by 50% vs untreated
Description: (§1) To each well in a 96-well plate, 50,000 cells in 100 μL media were seeded. Vero E6 and HepG2 cells were incubated overnight in DMEM for cell adherence at 37°C and 5% CO2. The media was removed from the wells and 100 μL solution made up of fresh DMEM media (99 μL) and the test compound (1 μL from a DMSO stock solution that was […] more concentrated than the final concentration in the well) was then added to each well. DMSO content of each well was consistently kept at 0.5 %v/v. Treated plates were incubated for 48 h (5% CO2, 37°C), after which 10 μL of Celltitre 96 Aqueous One Solution was added to each well, without removal of media, and incubated for a further 3 h. Subsequently, absorbance readings were taken at 490 nm on a Tecan GENios Microplate Reader.
(§2) Cell viability was determined from the expression: Cellviability(%)={[Absorbance(cells+cpd)−Absorbance(cpd)]/[Absorbance(cells+vc)−Absorbance(vc)]}×100% where Absorbance (cells + cpd) = absorbance of wells containing cells and test compound in vehicle (media +0.5% DMSO); Absorbance (cpd) = absorbance of wells containing test compound in vehicle without cells (compound control); Absorbance (cells + vc) = absorbance of wells containing cells in vehicle (vc) only (untreated cells); Absorbance (vc) = absorbance of wells containing vehicle without cells (vehicle control). The percentage viability readings were plotted against log(concentration) on GraphPad Prism (Version 7.0, San Diego, CA) to give a sigmoidal curve, from which IC50, defined as the concentration of the compound that reduced cell viability by 50%, was obtained. At least 3 separate determinations were carried out.

M. bovis BCG [8] = format: cell-based, Mycobacterium bovis BCG
HepG2 = assay: Cytotoxicity in HepG2 cells; format: cell-based, human; conditions: Homo sapiens, HepG2; 48 h, growth suppressed by 50% vs untreated
Description: as §1, §2

Mab abscessus = assay: Time-kill kinetics, Mab abscessus; format: cell-based, Mycobacterium abscessus subsp. abscessus; conditions: BDQ alone 4x to 32x MIC90 (0.84–6.7 μg/mL)
M. bovis BCG [9] = format: cell-based, Mycobacterium bovis BCG; conditions: 15 μM or 8 μg/mL, equivalent to 230x MIC50
M. bovis BCG [10] = format: cell-based, Mycobacterium bovis BCG; conditions: PhA2 2x–4x MIC90BCG, TDZ 80 μM, 24 h
M. bovis BCG [11] = format: cell-based, Mycobacterium bovis BCG; conditions: 24 h
M. bovis BCG [12] = format: cell-based, Mycobacterium bovis BCG; conditions: 0.5x to 4x MIC90BCG
M. bovis BCG [13] = format: cell-based, Mycobacterium bovis BCG; conditions: 2x MIC90BCG over 48 h
M. bovis BCG [14] = conditions: 2x MIC90 over 24 h
[15] = M. bovis BCG, broth dilution, growth reduced by 50% vs untreated
[16] = M. bovis BCG, broth dilution, growth reduced by 90% vs untreated
[17] = read-out: MIC90 (Table S1), M. bovis BCG, broth dilution
[18] = 7H9 medium (first value of cell)
[19] = CA-MHB medium (second value of cell)
[20] = ATCC19977, Mab abscessus, read-out: MIC90 abscessus
[21] = read-out: MIC90 BCG, M. bovis BCG

In the case of `COc1ccc(CCN(C)CCCC(C#N)(c2ccc(OC)c(OC)c2)C2CCCCC2)cc1OC` (stereo not shown) [Compound A2, reference compound], the “MIC99 Mtb” value (Mtb H37Rv [1]) is given as 62.5 µM (≈ 30.9 µg/mL), the MIC50 (M. bovis BCG [2]; [15]) is given as 36 µM and the MIC90 (M. bovis BCG [2]; [16]) is given as 118 µM. It also gave an MIC90 (M. bovis BCG [2]; [17]) of 118 µM.
For `CO[C@H]1/C=C/O[C@@]2(C)Oc3c(C)c(O)c4c(O)c(c(/C=N/N5CCN(C)CC5)c(O)c4c3C2=O)NC(=O)/C(C)=C\C=C\[C@H](C)[C@H](O)[C@@H](C)[C@@H](O)[C@@H](C)[C@H](OC(C)=O)[C@@H]1C` [RIF, rifampin, reference compound], the MIC90 (M. bovis BCG [2]; read-out: MIC90 BCG) was 0.04 µM and 0.033 µg/mL and the “induction of pclgR promoter activity” value (M. bovis BCG-pclgR-RFP) was “No induction”.
For `COc1ccc(C(C#N)(CCCN2CCN(c3ccccc3F)CC2)C(C)C)cc1OC` (stereo not shown) [Compound A1, reference compound], the “MIC99 Mtb” value (Mtb H37Rv [1]) is given as 62.5 µM (≈ 27.5 µg/mL), the MIC50 (M. bovis BCG [2]; [15]) is given as 87 µM and the MIC90 (M. bovis BCG [2]; [16]) is given as 138 µM. For the same compound, the MIC90 (M. bovis BCG [2]; [17]) was 138 µM.
In the case of `COc1ccc(CCN(C)CCCC(C#N)(c2ccc(OC)c(OC)c2)C(C)C)cc1OC` (stereo not shown) [VP, verapamil, reference compound], the “concentration to inhibit mycobacterial growth” value (mycobacterial growth) is given as ~500 μM and ~227 μg/mL, the “kill of hypoxic M. bovis BCG” value [3] is given as 10^2 fold and the membrane depolarization (M. bovis BCG [4]) is given as “depolarization was evident”. The MIC90 ([5]; CCUG50184, 7H9 broth (first value)) was 2200 µM (≈ 1000 µg/mL), the MIC50 [5, 18] was 1450 µM (≈ 659 µg/mL) and the MIC50 [5, 19] was 1250 µM (≈ 568 µg/mL). It also gave an MIC90 ([5]; CCUG50184, camH broth (second value)) greater than 2500 µM, an MIC90 (Mab abscessus ATCC 19977; ATCC19977, 7H9 broth (first value), read-out: MIC90 Mab abscessus ATCC 19977) of 2400 µM (≈ 1090 µg/mL) and an MIC50 (Mab abscessus ATCC 19977; [18]) of 1290 µM (≈ 586 µg/mL). The MIC50 (Mab abscessus ATCC 19977; [19]) was 1200 µM (≈ 546 µg/mL), the MIC90 (Mab abscessus ATCC 19977; [20]) was 2400 µM and 1100 µg/mL and the MIC90 (Mab abscessus ATCC 19977; ATCC19977, camH broth (second value), read-out: MIC90 Mab abscessus ATCC 19977) was greater than 2500 µM. For the same compound, the MIC50 (Mtb H37Rv [6]; 120 h, read-out: MIC50 Mtb H37Rv) was 241 µM, the MIC90 (Mtb H37Rv [6]; 120 h, second value of cell MIC50/MIC90, incubation 5 days, read-out: MIC90 Mtb H37Rv) was 540 µM and the MIC50 (Mtb H37Rv [6]; read-out: MIC50 Mtb) was 110 µg/mL. It also gave an MIC90 (Mtb H37Rv [6]; read-out: MIC90 Mtb) of 246 µg/mL, an MIC50 (Mab complex) of 500 to 564 µg/mL (≈ 1100 to 1240 µM) and an MIC90 ([7]; CCUG48898, 7H9 broth (first value)) of 2250 µM (≈ 1020 µg/mL). The MIC50 [7, 18] was 1100 µM (≈ 500 µg/mL), the MIC50 [7, 19] was 1150 µM (≈ 523 µg/mL) and the MIC90 ([7]; CCUG48898, camH broth (second value)) was greater than 2500 µM. It also gave an MIC50 (M. bovis BCG [2]; 120 h, read-out: MIC50 BCG With Glycerol, 7H9 broth with glycerol, 5 days) of 210 µM, an MIC50 (M. bovis BCG [2]; 120 h, read-out: MIC50 BCG Without Glycerol, 7H9 broth without glycerol, 5 days) of 450 µM and an MIC50 (M. bovis BCG [2]; [15]) of 210 µM. The MIC90 (M. bovis BCG [2]; [16]) was 550 µM, the MIC50 (M. bovis BCG [2]; read-out: MIC50 BCG, 7H9 with glycerol) was 96 µg/mL and the MIC50 (M. bovis BCG [2]; read-out: MIC50 BCG, 7H9 without glycerol) was 205 µg/mL. The MIC90 (M. bovis BCG [2]; [17]) was 550 µM, the MIC90 (M. bovis BCG [2]; [21]) was 250 µg/mL and the “ED50 (concentration to reduce maximal contractility of the papillary muscle by 50%)” value (cat papillary muscle) was 3.5 µM. For the same compound, the IC50 (Vero E6) was 543 µM, the “time to reduce the CFU count to the detection limit” value (M. bovis BCG [8]; 2XMIC90BCG (1.1 mM, 500 μg/mL)) was 14 days and the IC50 (HepG2) was 504 µM.
With `COc1nc2ccc(Br)cc2cc1[C@@H](c1ccccc1)[C@@](O)(CCN(C)C)c1cccc2ccccc12` [BDQ, bedaquiline] the MIC90 (Mab abscessus ATCC 19977; [20]) was 0.37 µM and 0.21 µg/mL, the bactericidal activity (Mab abscessus) was “none to be bactericidal” and the MIC50 (M. bovis BCG [2]; [15]) was 0.065 µM. The MIC90 (M. bovis BCG [2]; [16]) was 0.25 µM, the MIC50 (M. bovis BCG [2]; read-out: MIC50 BCG) was 0.036 µg/mL and the MIC90 (M. bovis BCG [2]; [21]) was 0.14 µg/mL. The oxygen consumption rate (M. bovis BCG [9]) was “sharp increase in OCR” and the “reduction in CFU” value (M. bovis BCG [8]; BDQ alone 4x MIC90BCG (0.56 μg/mL), 28-day time point) was 10 fold.
In the case of `CSc1ccc2c(c1)N(CCC1CCCCN1C)c1ccccc1S2` (stereo not shown) [TDZ, thioridazine, reference compound], the MIC90 (M. bovis BCG [2]; [16]) is reported as 30 µM, the MIC90 (M. bovis BCG [2]; [21]) is reported as 11 µg/mL and the “NADH/NAD+ ratio” value (M. bovis BCG [10]) is reported as “higher ratios”. For the same compound, the “methylene blue decolorization (O2 uptake)” value (M. bovis BCG [11]; 80 μM, 30 μg/mL) was “No decolorization”.
With `NNC(=O)c1ccncc1` [INH, isoniazid, reference compound] the “formazan formation from MTS” value (M. bovis BCG [12]) was “increased formazan formation”, the “MIC90 BCG” value (M. bovis BCG [2]; M. bovis BCG) was 0.4 µg/mL (≈ 2.92 µM) and the MIC90 (M. bovis BCG [2]; [16]) was 3.4 µM. For the same compound, the MIC90 (M. bovis BCG [2]; [17]) was 3.5 µM, the MIC90 (M. bovis BCG [2]; [21]) was 0.45 µg/mL and the “effect on ATP levels” value (M. bovis BCG [13]) was “marked surge in ATP levels”. The membrane permeabilization (M. bovis BCG [14]) was “negligible permeabilization”, the “methylene blue decolorization (O2 uptake)” value (M. bovis BCG [11]; 4xMIC90BCG (1.6 μg/mL)) was “Decolorization (active O2 uptake)” and the “regrowth in time-kill curve” value (M. bovis BCG [8]; 2xMIC90BCG, 21 days) was “uptick in CFUs was observed after 5 days”.

Reference: article PMC12281142, “A potent phenylalkylamine disrupts mycobacterial membrane bioenergetics and augments bactericidal activity of bedaquiline” (iScience, 2025)
